Data reported in publication PMC7067379, “Mapping the S1 and S1’ subsites of cysteine proteases with new dipeptidyl nitrile inhibitors as trypanocidal agents” (PLoS Neglected Tropical Diseases, 2020).
Where two headings read alike, the source gives them in different places.

Experiments:
[1] = Mammalian cytotoxicity assay (MTT); type: cell-based; settings: rhesus monkey, LLCMK2 cells;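 note: Read-out is absorbance at 570 nm of formazan taken up in DMSO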
Description: LLCMK2 cells were cultured in 96-well plates at a concentration of 5 x 10^4 cells/ml. After 48 h, the plates were washed twice with PBS and 200 μL RPMI medium was added with serial dilutions of the compounds and benznidazole (1.95 μM to 250 μM) in triplicate. After 72 h at 37 °C, the cytotoxic activity of the compounds was determined by the classical MTT [3- (4,5-dimethylthiazol-2-yl) -2,5-diphenyltetrazolium bromide] method. Briefly, 50 μL MTT dissolved in PBS (2.0 mg mL^-1) was added to each well and the plates were incubated for 4 h at 37 °C. The formed formazan crystals were dissolved with DMSO (50 μL/well) and the absorbance of the samples was measured by spectrophotometer at 570 nm after 30 min.

[2] = target: cathepsin S (CatS) (Homo sapiens, UniProt P25774); assay: Cathepsin S enzyme inhibition; type: biochemical; settings: SD lower than 15%; read-out: pKi CatS (converted)
Description: (§1) Enzyme inhibition studies for Cz and LmCPB were performed as previously described for Cz. The experimental procedures are described in the Supporting Information (see chapter S3). Cathepsins B, L, S were assayed as reported.

[3] = target: cathepsin B (CatB) (Homo sapiens, UniProt P07858); assay: Cathepsin B enzyme inhibition; type: biochemical; settings: for Ki: SD lower than 15%, read-out: pKi CatB (converted)
[4] = target: Leishmania mexicana CPB (LmCPB) (Leishmania mexicana, UniProt P36400); assay: LmCPB enzyme inhibition; type: biochemical; settings: for difference in pKi, LmCPB: sign not given, direction by cell colour or wording
Description: as §1

[5] = target: recombinant cruzain (Cz) (Trypanosoma cruzi, UniProt P25779); assay: Cruzain enzyme inhibition; type: biochemical; settings: for difference in pKi, Cz: relative to compound 9, sign not given, direction by cell colour or wording
Description: as §1

[6] = target: cathepsin L (CatL) (Homo sapiens, UniProt P07711); assay: Cathepsin L enzyme inhibition; type: biochemical; settings: SD lower than 15%; read-out: pKi CatL (converted)
[7] = target: T1, Human recombinant cathepsin K (Homo sapiens, UniProt P43235); assay: Cathepsin K assay; type: biochemical; settings: SD lower than 15%; read-out: pKi CatK (converted)
T1 sequence (P43235 115-329): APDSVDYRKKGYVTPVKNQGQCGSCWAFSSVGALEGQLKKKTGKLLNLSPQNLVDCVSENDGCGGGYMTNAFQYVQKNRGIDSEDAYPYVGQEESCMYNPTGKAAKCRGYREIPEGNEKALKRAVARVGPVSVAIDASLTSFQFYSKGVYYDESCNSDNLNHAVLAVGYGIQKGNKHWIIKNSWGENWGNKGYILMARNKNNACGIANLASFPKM
Description: Human recombinant cathepsin K was assayed on a FLUOSTAR Optima plate reader at 25 °C with an excitation wavelength of 360 nm and an emission wavelength of 440 nm on a 96 well plate. The enzyme solution (23 μg/mL in 50 mM sodium acetate pH 5.5, 50 mM NaCl, 0.5 mM EDTA, 5 mM DTT) was diluted 1:100 with assay buffer (100 mM sodium citrate buffer pH 5.0, 100 mM NaCl, 1 mM EDTA, 0.01% CHAPS) containing 5 mM DTT and was then incubated at 37 °C for 30 min for activation. A 1.5 mM stock solution of the substrate Z-Leu-Arg-AMC was prepared in DMSO. […] The assay was performed with a final concentration of cathepsin K of 1.73 ng/mL. Stock solutions of inhibitors were prepared in DMSO. The final DMSO concentration was 2% (4 μL). Into a well containing 194.5 μL assay buffer, 0.8 μL of the fluorogenic substrate, DMSO and inhibitor solution (3.2 μL) were added. Upon addition of cathepsin K (1.5 μL), the measurement was started and followed for 20 min.

[8] = system: T. cruzi Tulahuen LacZ strain, intracellular amastigote forms; assay: In vitro trypanocidal activity on intracellular amastigote forms (Tulahuen strain); type: cell-based, Trypanosoma cruzi; settings: for EC50: Trypanosoma cruzi, TULAHUEN; for SI (selective index): from EC50 (T. cruzi) and CC50 (LLCMK2)
Description: Cells were evaluated in 96-well plates. Cells from the LLCMK2 lineage were plated at a concentration of 5x10^4 cells mL^-1. Trypomastigote forms of the Tulahuen LacZ strain were added at a concentration of 5×10^5 parasites mL^-1 and placed in the incubator at 37°C with 5% CO2 for 24 h. After the incubation period, the trypomastigote forms present were removed by successive washes with PBS, remaining only as intracellular amastigote forms. Compounds were added at different concentrations (1.95 μM to 250 μM serial dilutions) and incubated for 72 h. At the end of this period, the substrate CPRG (chlorophenol red β-D-galactopyranoside, 400 μM in 0.3% Triton X-100, pH 7.4) was added. […] Benznidazole was used as a positive control in the same concentrations as the substances, and DMSO as a negative control. Compounds were solubilized in DMSO. The selectivity index (SI) was calculated using the formula: […]. All statistical analyses were done with the program GraphPad Prism v.5.

[9] = LLCMK2, 72 h, MTT, Table 2, read-out: CC50 cytotoxicity
[10] = SD lower than 15%, read-out: pKi LmCPB (converted)
[11] = SD lower than 15%, read-out: pKi Cz (converted)
[12] = 72 h, amastigote, Tulahuen strain, 72 h, Table 2, read-out: EC50 trypanocidal activity
[13] = S1 Table, maximum concentration used 250 µM, read-out: EC50 T. cruzi
[14] = T. cruzi amastigote form, S1 Table, read-out: pEC50 (converted)
[15] = S1 Table, maximum concentration used 250 µM, read-out: CC50

Chain of Leishmania mexicana CPB (LmCPB) (P36400 126-443): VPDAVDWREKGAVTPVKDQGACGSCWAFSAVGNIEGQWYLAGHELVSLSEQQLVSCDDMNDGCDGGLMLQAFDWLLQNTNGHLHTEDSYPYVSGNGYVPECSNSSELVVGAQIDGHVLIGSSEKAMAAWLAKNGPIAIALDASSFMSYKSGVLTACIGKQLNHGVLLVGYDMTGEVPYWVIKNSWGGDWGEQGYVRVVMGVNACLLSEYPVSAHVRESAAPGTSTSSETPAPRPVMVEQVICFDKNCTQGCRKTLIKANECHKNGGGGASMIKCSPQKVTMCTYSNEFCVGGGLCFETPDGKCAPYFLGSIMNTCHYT
Chain of recombinant cruzain (Cz) (P25779 123-337): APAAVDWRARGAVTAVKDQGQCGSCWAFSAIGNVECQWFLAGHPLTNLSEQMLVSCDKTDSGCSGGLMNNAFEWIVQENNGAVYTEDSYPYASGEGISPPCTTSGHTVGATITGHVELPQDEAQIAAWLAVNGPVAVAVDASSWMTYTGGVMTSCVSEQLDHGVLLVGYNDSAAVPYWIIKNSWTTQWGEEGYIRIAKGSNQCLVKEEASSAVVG
Chain of cathepsin L (CatL) (P07711 114-333): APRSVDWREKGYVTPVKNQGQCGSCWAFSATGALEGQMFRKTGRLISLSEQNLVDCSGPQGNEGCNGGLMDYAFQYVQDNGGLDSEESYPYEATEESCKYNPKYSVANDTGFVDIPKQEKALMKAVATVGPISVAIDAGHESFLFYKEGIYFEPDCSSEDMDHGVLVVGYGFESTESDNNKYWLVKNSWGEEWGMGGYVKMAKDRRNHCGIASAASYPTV
Chain of cathepsin S (CatS) (P25774 115-331): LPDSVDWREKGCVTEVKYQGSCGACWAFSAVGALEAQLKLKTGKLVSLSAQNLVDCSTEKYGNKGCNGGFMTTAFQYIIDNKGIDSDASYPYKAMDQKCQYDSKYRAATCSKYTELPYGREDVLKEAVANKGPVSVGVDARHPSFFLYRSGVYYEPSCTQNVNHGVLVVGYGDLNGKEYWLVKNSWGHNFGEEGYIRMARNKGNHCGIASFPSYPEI

SMILES | melting point [°C] | CC50 at 72 h [1, 9] [nM] | Ki [2] [nM] | Ki [3] [nM] | Ki [4, 10] [nM] | Ki [5, 11] [nM] | difference in pKi, Cz [5] | Ki [6] [nM] | Ki [7] [nM] | EC50 [8, 12] [nM] | EC50 [8, 13] [nM] | EC50 [8, 14] [nM] | SI (selective index) ([8]; Table 2) | CC50 at 72 h [1, 15] [nM] | also measured
Cn1nc(C(C)(C)C)cc1C(=O)N[C@@H](Cc1ccccc1)C(=O)N[C@H](C#N)Cc1ccccc1 [Compound 50, 3-(tert-Butyl)-N-((S)-1-(((S)-1-cyano-2-phenylethyl)amino)-1-oxo-3-phenylpropan-2-yl)-1-methyl-1H-pyrazole-5-carboxamide] | 89 to 90 | 83100 ± 6850 | 50.1 | 31600 | 15.8 | 20 | 0.4 | 3.16 | 501 | 63300 ± 5740 | 63500 | 63100 | 1.31 | – | difference in pKi, CatB ([3]; relative to compound 9, sign not given, direction by cell colour or wording): 0.3; difference in pKi, LmCPB ([4]; relative to compound 9): 0.7
Cn1nc(C(C)(C)C)cc1C(=O)N[C@@H](Cc1ccccc1)C(=O)N[C@@H](C#N)Cc1ccccc1 [Compound 51, 3-(tert-Butyl)-N-((S)-1-(((R)-1-cyano-2-phenylethyl)amino)-1-oxo-3-phenylpropan-2-yl)-1-methyl-1H-pyrazole-5-carboxamide] | 98 to 99 | 42300 ± 3940 | 1260 | – | 794 | 501 | – | 126 | 2510 | 8600 ± 530 | – | 7940 | 4.9 | 42300 | remaining activity at 10 µM ([3]; 10 μM, replicates = 2, n.i. = no inhibition observed at 10 μM): 94%
CC(C)C[C@@H](C#N)NC(=O)[C@H](Cc1ccccc1)NC(=O)c1cc(C(C)(C)C)nn1C [Compound 52, 3-(tert-Butyl)-N-((S)-1-(((S)-1-cyano-3-methylbutyl)amino)-1-oxo-3-phenylpropan-2-yl)-1-methyl-1H-pyrazole-5-carboxamide] | 81 to 82 | 97900 ± 6520 | 126 | 7940 | 39.8 | 31.6 | – | 5.01 | 200 | 4100 ± 470 | – | 3980 | – | – | fold increase in trypanocidal potency ([8]; compared with compound 9): 17.5 fold
Cn1nc(C(C)(C)C)cc1C(=O)N[C@@H](Cc1ccccc1)C(=O)N[C@H](C#N)Cc1cccc(Cl)c1 [Compound 54, 3-(tert-Butyl)-N-((S)-1-(((S)-2-(3-chlorophenyl)-1-cyanoethyl)amino)-1-oxo-3-phenylpropan-2-yl)-1-methyl-1H-pyrazole-5-carboxamide] | 132 to 133 | 44700 ± 5240 | 79.4 | 12600 | – | – | – | 5.01 | 501 | 15800 ± 1430 | – | 15800 | 2.83 | – | Ki [4]: 31.6 nM; Ki [5]: 31.6 nM
C[C@@H](OCc1ccccc1)[C@@H](C#N)NC(=O)[C@H](Cc1ccccc1)NC(=O)c1cc(C(C)(C)C)nn1C [Compound 56, N-((S)-1-(((1R,2R)-2-(Benzyloxy)-1-cyanopropyl)amino)-1-oxo-3-phenylpropan-2-yl)-3-(tert-butyl)-1-methyl-1H-pyrazole-5-carboxamide] | 115 to 116 | – | 1000 | 6310 | 316 | 501 | -1.0 | 100 | 2000 | – | > 100000 | > 100000 | – | > 100000 | EC50 ([8]; amastigote forms of T. cruzi (Tuhaluen strain), Figs 12-14, unit inferred): > 100000 nM
CC(C)C[C@H](NC(=O)c1cc(C(C)(C)C)nn1C)C(=O)N[C@H](C#N)[C@@H](C)OCc1ccccc1 [Compound 58, N-((S)-1-(((1R,2R)-2-(Benzyloxy)-1-cyanopropyl)amino)-4-methyl-1-oxopentan-2-yl)-3-(tert-butyl)-1-methyl-1H-pyrazole-5-carboxamide] | 96 to 97 | – | 50.1 | 7940 | 20 | 12.6 | 0.6 | 63.1 | 15.8 | – | > 100000 | > 100000 | – | > 100000 | difference in pKi, LmCPB ([4]; relative to compound 11): 0.4; EC50 ([8]; amastigote forms of T. cruzi (Tuhaluen strain), Figs 12-14, unit inferred, read-out: EC50): > 100000 nM
